Columns and labels:
Format in all cases: cell-based
[1] = system: Gram negative bacteria on the surface of meat samples; experiment: Bacterial growth under air, CO and N2 atmospheres, Gram negative selective plates (MacConkey); settings: 4 g meat samples flushed with gas, 24 h at 15±3° C.; MacConkey plates overnight at 37° C.
Experimental: (§1) Meat samples weighing 4.00+0.18 grams, were treated by flushing with either air, CO, or N2. After twenty-four hours of storage at room temperature (15±3° C.) each of the treated meat samples was soaked in sterile 0.15M sodium chloride (1 ml per 2 grams of treated meat) for ninety minutes to extract any bacteria present on the surface of individual samples. Aliquots of serial dilutions of the extracts were plated onto non-selective agar plates (Bactoagar, Difco) and on Gram negative selective plates (MacConkey, Difco). All the plates were incubated over night at 37° C. to allow bacterial growth.

[2] = system: bacteria present on the surface of meat samples; experiment: Bacterial growth under air, CO and N2 atmospheres, non-selective agar plates (Bactoagar); settings: 4 g meat samples flushed with gas, 24 h at 15±3° C.; plates overnight at 37° C.
Experimental: as §1

[3] = system: Salmonella Typhimirium; experiment: Growth of inoculated Salmonella Typhimirium on meat under defined atmospheres; settings: beef; high CO (95-100%) or low (10%) CO versus untreated
Experimental: (§2) Studies were carried out comparing growth of inoculated pathogenic bacteria on fresh meat under three atmospheres. Air and two CO containing modified atmospheres: high CO (95-100%) and low (10%) CO. In low CO MA CO was replaced by an inert gas, nitrogen. Note that in most experiments the CO untreated control was the same for both modified atmospheres. Experiments with E coli were carried out on different meat controls.

[4] = system: Listeria monocytogenes; experiment: Growth of inoculated Listeria monocytogenes on meat under defined atmospheres; settings: beef and poultry; high CO (95-100%) or low (10%) CO versus untreated
Experimental: as §2

[5] = system: Staphylococcus aures; experiment: Growth of inoculated Staphylococcus aures on meat under defined atmospheres; settings: beef; high CO (95-100%) versus untreated
Experimental: as §2

[6] = system: Clostridium prefringens; experiment: Growth of inoculated Clostridium prefringens on meat under defined atmospheres; settings: beef and poultry; high CO (95-100%) or low (10%) CO versus untreated
Experimental: as §2

[7] = system: E coli; experiment: Growth of inoculated E coli on meat under defined atmospheres; settings: beef; high CO (95-100%) or low (10%) CO versus untreated
Experimental: as §2

[8] = system: Pseudomonas fluorescence; experiment: Growth of inoculated Pseudomonas fluorescence on meat under defined atmospheres; settings: beef and poultry; high CO (95-100%) or low (10%) CO versus untreated
Experimental: as §2

| Compound | No of calories, Gram negative (bacterial colony counts per gram of meat, mean±SD) [1] | No of calories, Grown on bactoagar (bacterial colony counts per gram of meat, mean±SD) [2] | growth of Salmonella Typhimirium [3] | growth of Listeria monocytogenes [4] | growth of Staphylococcus aures [5] | growth of Clostridium prefringens [6] | growth of E coli [7] | growth of Pseudomonas fluorescence [8] |
| --- | --- | --- | --- | --- | --- | --- | --- | --- |
| N#N [N2, nitrogen, reference compound] | (0.46 + 0.25) × 10^6 per gram of meat | (1.63 ± 0.3) × 10^6 per gram of meat |  |  |  |  |  |  |
| [C-]#[O+] [CO, carbon monoxide] | 0.02 ± 0.01) × 10^6 per gram of meat | (0.29 ± 0.01) × 10^6 per gram of meat | inhibited | inhibited | inhibited | inhibited | inhibited | inhibited |

Reference: US20040009273A1, “Method for the long-term preservation of meat and the meat process thereby” (priority 1996, published 2004)
